Reference: patent publication US12018021B2 (UCB Biopharma SRL, priority 2018, dated 2024)

The compounds below were run against IgE-Tb / FcεRIα-Y131A-AF488 (Homo sapiens, UniProt P01854) (assay: IgE-Tb / FcεRIα-Y131A-AF488 FRET assay (protocol for examples 1 to 233)). Conditions: examples 1 to 233: 5 nM IgE-Tb, 25 nM FcεRIα-Y131A-AF488, incubated 2 hours at room temperature; read-out: Y131A FRET IC50 range.
Sequence of IgE-Tb / FcεRIα-Y131A-AF488 (P01854 1-427 limits assumed, stated change not applied): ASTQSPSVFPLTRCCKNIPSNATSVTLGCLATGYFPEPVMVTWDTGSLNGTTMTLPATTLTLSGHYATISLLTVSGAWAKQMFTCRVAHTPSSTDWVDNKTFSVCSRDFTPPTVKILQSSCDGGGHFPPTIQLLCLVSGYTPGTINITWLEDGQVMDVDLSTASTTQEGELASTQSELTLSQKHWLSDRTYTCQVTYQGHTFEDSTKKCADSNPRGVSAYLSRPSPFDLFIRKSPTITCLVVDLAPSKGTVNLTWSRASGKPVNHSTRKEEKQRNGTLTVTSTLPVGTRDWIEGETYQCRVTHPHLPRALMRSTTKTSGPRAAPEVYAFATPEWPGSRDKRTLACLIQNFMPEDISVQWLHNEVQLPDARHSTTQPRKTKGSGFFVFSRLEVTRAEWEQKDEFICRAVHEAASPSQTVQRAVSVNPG
Type: binding
Protocol: For examples 1 to 233, the assay was conducted according to the following: Each assay reaction was conducted in a volume of 25 μl in a 384-well half-volume plate. 10 point compound serial dilutions (3-fold) were generated in DMSO at a concentration of ×50 that of the final assay concentration (FAC). Compound solutions were then prepared by IgE-Tb diluting 10-fold in assay buffer. For the assay, 5 μl of diluted compound was added to 10 μl of, followed by addition of 10 μl FcεRIα-Y131A-AF488. FRET reagents FACs were 5 nM IgE-Tb, 25 nM FcεRIα-Y131A-AF488. Usually the top FAC of compound in the assay was 10 μM. The final DMSO concentration was 2%. The minimum signal (MIN) was measured by adding 5l unlabelled FcεRIα at 1 μM (FAC=200 nM) to the FRET reagents. The maximum FRET signal (MAX) was measured in wells containing FRET reagents but no compound. The assay was incubated for 2 hours at room temperature, protected from light and evaporation, and with gentle agitation.
Measurement of FRET for each well was carried out by exciting at 330 nm and measuring emission at 495/520 nm using an Envision plate reader (Perkin Elmer). FRET ratio was calculated as follows: Emission at 520/Emission at 495×1000.
The FRET ratio was used for the data analysis.
Z′ was calculated as follows (σ=standard deviation and μ=mean): 1−((3×σMAX)+(3×σMIN))/(μMAX−μMIN)
Z′ above 0.5 was considered a good assay.
Background signal (MIN) was subtracted from all wells. Using the background subtracted values, the percent inhibition by compound in each test-well was calculated as follows: 100−Test-well FRET ratio/MAX FRET ratio×100.
Percent inhibition was plotted against compound concentration. IC50 values for each compound were determined using four parameter logistic fit model using the XLFIT5 software package.
With `CNC(=O)c1c(NC(=O)C2CC2C)sc2c1CCCC2` (mixture of isomers) [Example 102, N-Methyl-2-[(2-methylcyclopropanecarbonyl)amino]-4,5,6,7-tetrahydrobenzothiophene-3-carboxamide] the IC50 was 10 to 50 µM.
With `C[S+]([O-])NC1CCc2sc(NC(=O)C3CC3)c(C(=O)NCC3CC3)c2C1` (mixture of isomers) [Example 199, 2-(Cyclopropanecarbonylamino)-N-(cyclopropylmethyl)-5-(methanesulfinamido)-4,5,6,7-tetrahydrobenzothiophene-3-carboxamide] the IC50 was 1 to 10 µM.
With `C[C@@H]1CCc2sc(NC(=O)C3CC3)c(C(=O)NCC3CC3)c21` (single isomer, unassigned) [Example 13] the IC50 was 1 to 10 µM.
In the case of `C[C@H]1CCc2sc(NC(=O)C3CC3)c(C(=O)NCC3CC3)c21` (single isomer, unassigned) [Example 14], the IC50 is reported as 10 to 50 µM.

These compounds were tested against IgE-Tb / sFcεRIα-Y131A-AF488 (Homo sapiens, UniProt P01854, N146Q/N252Q) (assay: IgE-Tb / sFcεRIα-Y131A-AF488 FRET assay (protocol for examples 234 to 501)). Conditions: examples 234 to 501: compound with IgE-Tb 30 minutes before sFcεRIα-Y131A-AF488, incubated 18 hours at room temperature; read-out: Y131A FRET IC50 range.
Sequence of IgE-Tb / sFcεRIα-Y131A-AF488 (P01854 whole entry N146Q/N252Q): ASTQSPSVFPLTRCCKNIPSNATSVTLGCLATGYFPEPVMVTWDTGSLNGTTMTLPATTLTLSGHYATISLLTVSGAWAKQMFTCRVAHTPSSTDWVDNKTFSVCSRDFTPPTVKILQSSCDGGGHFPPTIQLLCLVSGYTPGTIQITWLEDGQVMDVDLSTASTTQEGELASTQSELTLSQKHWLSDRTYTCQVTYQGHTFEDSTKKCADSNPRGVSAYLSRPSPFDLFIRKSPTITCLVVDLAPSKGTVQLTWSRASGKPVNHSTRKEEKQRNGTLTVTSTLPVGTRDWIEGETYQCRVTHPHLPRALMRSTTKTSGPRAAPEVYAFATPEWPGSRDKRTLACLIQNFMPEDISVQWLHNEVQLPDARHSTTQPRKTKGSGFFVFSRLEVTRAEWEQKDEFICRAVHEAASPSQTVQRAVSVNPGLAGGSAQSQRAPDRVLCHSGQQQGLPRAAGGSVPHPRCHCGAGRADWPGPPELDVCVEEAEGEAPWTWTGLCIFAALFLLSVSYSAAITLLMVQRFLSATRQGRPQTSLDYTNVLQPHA
Type: binding
In short: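 Read-out is the 520/490 nm emission ratio (337 nm excitation) after 18 h at room temperature, background subtracted, fitted four-parameter for IC50. Final reagents: 5 nM IgE-Tb, preincubated 30 min with compound (top typically 10 μM, 2% DMSO, 3-fold 10-point), plus 25 nM sFcεRIα-Y131A-AF488.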
With `COc1cc(Nc2nncn2[C@H]2CCc3sc(NC(=O)[C@H]4C[C@@H]4C)c(C(=O)NCC4CC4)c3C2)n(C)n1` [Example 468, (5S)—N-(cyclopropylmethyl)-5-[3-[(5-methoxy-2-methylpyrazol-3-yl)amino]-1,2,4-triazol-4-yl]-2-[[(1S,2S)-2-methylcyclopropanecarbonyl]amino]-4,5,6,7-tetrahydro-1-benzothiophene-3-carboxamide] the IC50 was under 1 µM.
With `Cn1nc(C(F)F)cc1Nc1nncn1[C@H]1CCc2sc(NC(=O)[C@H]3C[C@H](F)C3)c(C(=O)NC[C@H]3C[C@@H]3F)c2C1` [Example 471, (5S)-5-[3-[[5-(difluoromethyl)-2-methylpyrazol-3-yl]amino]-1,2,4-triazol-4-yl]-2-[trans-(3-fluorocyclobutanecarbonyl)amino]-N-[[(1R,2S)-2-fluorocyclopropyl]methyl]-4,5,6,7-tetrahydro-1-benzothiophene-3-carboxamide] the IC50 was under 1 µM.
`Cn1nc(C(F)F)cc1Nc1nncn1[C@H]1CCc2sc(NC(=O)[C@H]3C[C@H](F)C3)c(C(=O)NCC3CCC3)c2C1` [Example 473, (5S)—N-(cyclobutylmethyl)-5-[3-[[5-(difluoromethyl)-2-methylpyrazol-3-yl]amino]-1,2,4-triazol-4-yl]-2-[trans-(3-fluorocyclobutanecarbonyl)amino]-4,5,6,7-tetrahydro-1-benzothiophene-3-carboxamide] gave an IC50 of under 1 µM.
With `Cn1nc(C(F)F)cc1Nc1nncn1[C@H]1CCc2sc(NC(=O)C3CC(F)(F)C3)c(C(=O)NC[C@H]3C[C@H]3F)c2C1` [Example 479, (5S)-2-[(3,3-difluorocyclobutanecarbonyl)amino]-5-[3-[[5-(difluoromethyl)-2-methylpyrazol-3-yl]amino]-1,2,4-triazol-4-yl]-N-[[(1R,2R)-2-fluorocyclopropyl]methyl]-4,5,6,7-tetrahydro-1-benzothiophene-3-carboxamide] the IC50 was under 1 µM.
For `Cn1nc(C(F)F)cc1Nc1nncn1[C@H]1CCc2sc(NC(=O)C3CC(F)(F)C3)c(C(=O)N[C@H]3C[C@H](F)C3)c2C1` [Example 480, (5S)-2-[(3,3-difluorocyclobutanecarbonyl)amino]-5-[3-[[5-(difluoromethyl)-2-methylpyrazol-3-yl]amino]-1,2,4-triazol-4-yl]-N-(trans-3-fluorocyclobutyl)-4,5,6,7-tetrahydro-1-benzothiophene-3-carboxamide], the IC50 was under 1 µM.
`Cn1nc(OC(F)F)cc1Nc1nncn1[C@H]1CCc2sc(NC(=O)[C@H]3C[C@H](F)C3)c(C(=O)NC[C@@H]3C[C@@H]3F)c2C1` [Example 481, (5S)-5-[3-[[5-(difluoromethoxy)-2-methylpyrazol-3-yl]amino]-1,2,4-triazol-4-yl]-2-[trans-(3-fluorocyclobutanecarbonyl)amino]-N-[[(1S,2S)-2-fluorocyclopropyl]methyl]-4,5,6,7-tetrahydro-1-benzothiophene-3-carboxamide] was tested, and the IC50 was under 1 µM.
Work on `Cn1nc(OC(F)F)cc1Nc1nncn1[C@H]1CCc2sc(NC(=O)[C@H]3C[C@H](F)C3)c(C(=O)NC[C@H]3C[C@H]3F)c2C1` [Example 482, (5S)-5-[3-[[5-(difluoromethoxy)-2-methylpyrazol-3-yl]amino]-1,2,4-triazol-4-yl]-2-[trans-(3-fluorocyclobutanecarbonyl)amino]-N-[[(1R,2R)-2-fluorocyclopropyl]methyl]-4,5,6,7-tetrahydro-1-benzothiophene-3-carboxamide] yielded an IC50 of under 1 µM.
`Cn1nc(OC(F)F)cc1Nc1nncn1[C@H]1CCc2sc(NC(=O)[C@H]3C[C@H](F)C3)c(C(=O)NC[C@H]3C[C@@H]3F)c2C1` [Example 483, (5S)-5-[3-[[5-(difluoromethoxy)-2-methylpyrazol-3-yl]amino]-1,2,4-triazol-4-yl]-2-[trans-(3-fluorocyclobutanecarbonyl)amino]-N-[[(1R,2S)-2-fluorocyclopropyl]methyl]-4,5,6,7-tetrahydro-1-benzothiophene-3-carboxamide] showed an IC50 of under 1 µM.
`Cn1nc(OC(F)F)cc1Nc1nncn1[C@H]1CCc2sc(NC(=O)[C@H]3C[C@H](F)C3)c(C(=O)NC[C@H]3C[C@H](F)C3)c2C1` [Example 486, (5S)-5-[3-[[5-(difluoromethoxy)-2-methylpyrazol-3-yl]amino]-1,2,4-triazol-4-yl]-2-[trans-(3-fluorocyclobutanecarbonyl)amino]-N-[trans-(3-fluorocyclobutyl)methyl]-4,5,6,7-tetrahydro-1-benzothiophene-3-carboxamide] gave an IC50 of under 1 µM.
`Cn1nc(OC(F)F)cc1Nc1nncn1[C@H]1CCc2sc(NC(=O)[C@H]3C[C@H](F)C3)c(C(=O)N[C@H]3C[C@H](F)C3)c2C1` [Example 487, (5S)-5-[3-[[5-(difluoromethoxy)-2-methylpyrazol-3-yl]amino]-1,2,4-triazol-4-yl]-2-[trans-(3-fluorocyclobutanecarbonyl)amino]-N-(trans-3-fluorocyclobutyl)-4,5,6,7-tetrahydro-1-benzothiophene-3-carboxamide] gave an IC50 of under 1 µM.
`Cn1nc(OC(F)F)cc1Nc1nncn1[C@H]1CCc2sc(NC(=O)C3CC(F)(F)C3)c(C(=O)NC[C@@H]3C[C@@H]3F)c2C1` [Example 490, (5S)-2-[(3,3-difluorocyclobutanecarbonyl)amino]-5-[3-[[5-(difluoromethoxy)-2-methylpyrazol-3-yl]amino]-1,2,4-triazol-4-yl]-N-[[(1S,2S)-2-fluorocyclopropyl]methyl]-4,5,6,7-tetrahydro-1-benzothiophene-3-carboxamide] was tested, and the IC50 was under 1 µM.
`Cn1nc(OC(F)F)cc1Nc1nncn1[C@H]1CCc2sc(NC(=O)C3CC(F)(F)C3)c(C(=O)NC[C@H]3C[C@H]3F)c2C1` [Example 491, (5S)-2-[(3,3-difluorocyclobutanecarbonyl)amino]-5-[3-[[5-(difluoromethoxy)-2-methylpyrazol-3-yl]amino]-1,2,4-triazol-4-yl]-N-[[(1R,2R)-2-fluorocyclopropyl]methyl]-4,5,6,7-tetrahydro-1-benzothiophene-3-carboxamide] was tested, and the IC50 was under 1 µM.
Work on `Cn1nc(OC(F)F)cc1Nc1nncn1[C@H]1CCc2sc(NC(=O)C3CC(F)(F)C3)c(C(=O)N[C@H]3C[C@H](F)C3)c2C1` [Example 492, (5S)-2-[(3,3-difluorocyclobutanecarbonyl)amino]-5-[3-[[5-(difluoromethoxy)-2-methylpyrazol-3-yl]amino]-1,2,4-triazol-4-yl]-N-(trans-3-fluorocyclobutyl)-4,5,6,7-tetrahydro-1-benzothiophene-3-carboxamide] yielded an IC50 of under 1 µM.
`Cn1nc(C(F)F)cc1Nc1nncn1[C@H]1CCc2sc(NC(=O)C3CC3)c(C(=O)N[C@@H]3CC34CC4)c2C1` [Example 496, (5S)-2-(cyclopropanecarbonylamino)-5-[3-[[5-(difluoromethyl)-2-methyl-pyrazol-3-yl]amino]-1,2,4-triazol-4-yl]-N-[(2R)-spiro[2.2]pentan-2-yl]-4,5,6,7-tetrahydrobenzothiophene-3-carboxamide] was tested, and the IC50 was under 1 µM.
In the case of `Cc1cc(Nc2nncn2[C@H]2CCc3sc(NC(=O)C4CC45CC5)c(C(=O)NCC4CC4)c3C2)n(C)n1` (stereo partly drawn) [Example 499, (5S)—N-(cyclopropylmethyl)-5-[3-[(2,5-dimethylpyrazol-3-yl)amino]-1,2,4-triazol-4-yl]-2-(spiro[2.2]pentane-2-carbonylamino)-4,5,6,7-tetrahydrobenzothiophene-3-carboxamide], the IC50 is reported as under 1 µM.
